In assay [1] the test system is EPCR^C/S monocytes. Briefly: Lipid supplementation and aPL signalling in EPCR^C/S monocytes. It is filed as cell-based, mouse. An excerpt:
(§1) (A) Effect of aPL HL5B, aPL HL7G, and αEPCR antibodies on EPCR-dependent aPC generation on murine microvascular endothelial cells. (B) Effect of anti-mouse EPCR antibodies 1682 and 1650 on Tnfα mRNA induction by aPL HL5B and HL7G; mean±SD, n=6. * p<0.0001; one-way ANOVA, Dunnett multiple-comparison. (C) Effect of αEPCR on aPL HL5B and HL7G internalization in CD115+ splenocytes. Bar=5 μm. (D) Flow cytometry detection of FXa and EPCR on CD115+ spleen monocytes isolated from indicated mouse strains. (E) Effect of pre-treatment with 10 μM LBPA for 10 min on surface binding of αEPCR 1682 and αLBPA 6C4 on indicated monocytes; mean±SD, n=6. * p<0.003; multiple t-tests. (F) Competition of αEPCR 1650 and 1682 with binding of FITC-labelled anti-LBPA antibody 6C4 to mouse CD115+ splenocytes. (G) Competition of αLBPA 6C4 with binding of αEPCR 1682 to mouse monocytes. (H) Effect of LBPA, cardiolipin (CL), and phosphatidylserine (PS) (10 μM) on aPL HLSB signalling in EPCR^C/S monocytes. Induction of TNF after 3 hours is shown; mean±SD, n=6. (I) LBPA loading of purified mouse or human sEPCR evidenced by faster mobility on native gels. (J) Surface plasmon resonance analysis of aPL HLSB binding to purified human sEPCR or sEPCR-LBPA. The affinity calculation was based on a monovalent binding model because no cooperative binding was evident.
(A) TNFα mRNA induction after 2 hours by HLSB is prevented in Alix-deficient trophoblast cells; mean±SD, n=6. * p<0.0001; t-test following Shapiro-Wilk test for normal distribution. (B, C) Proximity ligation assays (PLA) for ASM and EPCR on scrambled control JARs or ALIX−/− cells after 10 minutes of stimulation with HLSB (B) or thrombin (C) with or without LBPA loading. Bar=25 μm. (D) aPL internalization in ALIX deficient JAR cells and signalling in EPCR^C/S monocytes (E) was restored by adding 10 μM LBPA (S,R) but not by other phospholipids. (F) Pregnancy loss was scored at day 15.5 p.c. after injection of aPL HLSB on days 8 and 12. * p<0.02; one-way ANOVA, Dunnett multiple-comparison test. […]

For assay [2], the system named is ALIX^−/− trophoblast cells. The experiment in a line: aPL HL5B binding to ALIX-deficient trophoblast (JAR) cells after adding phospholipids. The format is cell-based, human. The following applies: 10 μM lipid added. How it is done: (§2) (A) TNFα mRNA induction after 2 hours by HLSB is prevented in Alix-deficient trophoblast cells; mean±SD, n=6. * p<0.0001; t-test following Shapiro-Wilk test for normal distribution. (B, C) Proximity ligation assays (PLA) for ASM and EPCR on scrambled control JARs or ALIX−/− cells after 10 minutes of stimulation with HLSB (B) or thrombin (C) with or without LBPA loading. Bar=25 μm. (D) aPL internalization in ALIX deficient JAR cells and signalling in EPCR^C/S monocytes (E) was restored by adding 10 μM LBPA (S,R) but not by other phospholipids. (F) Pregnancy loss was scored at day 15.5 p.c. after injection of aPL HLSB on days 8 and 12. * p<0.02; one-way ANOVA, Dunnett multiple-comparison test. (G) Schematic representation of aPL signalling leading to thrombosis or pregnancy complications.
Human ALIX^−/− trophoblast cells and murine EPCR^C/S monocytes provided tools to compare the species conservation of lipid presentation by EPCR. Only addition of S/R 18:1 LBPA and R/R 18:1 LBPA, but not S/S 18:1 LBPA or semi-S/R LBPA restored aPL HL5B binding to ALIX^−/− trophoblast cells (FIG. 7D) or signaling in EPCR^C/S monocytes (FIG. 7E). Thus, human and mouse EPCR present LBPA with the same selectivity, providing an explanation for the remarkable species cross-reactivity of pathogenic aPL.

The subject of assay [3] is EPCR^C/S pDC. The experiment in a line: Mouse pDC and B cell co-culture with R848 and aPL HL5B, anti-cardiolipin titers. The following applies: co-cultures with EPCR^C/S pDC. It is filed as cell-based. On the procedure: (§3) (A) Gbp2 mRNA induction after 1 hour stimulation with HL5B, HL7G, or LPS (100 ng/ml) in EPCR^C/S or WT monocytes with or without addition of LBPA. (B) WT monocytes were stimulated for 1 hour with IgG isolated from MRL/lpr lupus-prone or control MRL mice in the presence of the indicated antibodies to EPCR. (C) Human monocyte-derived DC were co-cultured with B cells in the presence of TLR7/8 agonist R848 and aPL HL5B with the indicated antibodies to human EPCR. Anti-cardiolipin titers were determined after 10 days. (D-F) Co-cultures of isolated spleen plasmacytoid dendritic cells (pDC) and B cells from the indicated mouse strains were co-cultured with Tlr7 agonist R848 and aPL HL5B for 10 days, followed by determination of anti-cardiolipin titers. IFNR^−/−, type I interferon receptor deficient mice.
Supporting this conclusion, anti-cardiolipin antibody production was absent when mouse pDC, but not B cells, were isolated from EPCR^C/S mice (FIG. 9D). Addition of LBPA or interferon a restored the expansion of anti-cardiolipin producing B cells in co-cultures with aPL signaling-deficient EPCR^C/S pDC (FIG. 9D). In contrast, cells deficient in LRP8, the receptor for β2GPI, produced anti-cardiolipin antibodies normally in response to co-stimulation of aPL and Tlr7 agonist (FIG. 9E).

Assay [4] deals with acidic sphingomyelinase (ASM). Briefly: ASM activity in CD115+ spleen monocytes stimulated with aPL HLSB. The note with it: EPCR^C/S monocytes, LBPA 10 μM. The format is cell-based, mouse. On the procedure: (A) WT CD115+ spleen monocyte induction of ASM activity after 15 minutes aPL HLSB stimulation with the indicated inhibitors. (B) LBPA (10 μM) loading of EPCR^C/S cells enabled ASM activation in CD115+ monocytes stimulated with HLSB.
ASM requires LBPA for activity (33). […] Thrombin stimulation to induce ASM surface expression was sufficient to trigger ASM activation that was blocked by extracellular addition of αEPCR-LBPA 1682 (FIG. 6C). TfpiΔK1 cells expressed LBPA-loaded EPCR (FIG. 3D), but lack surface FXa to trigger thrombin generation. […] In turn, ASM modification of surface lipid modification is required for endosomal trafficking and signaling of EPCR-bound aPL.

For assay [5], the target named is T1, LBPA-loaded EPCR (Mus musculus, UniProt Q64695, C242S).
T1 construct: endogenous in cells; host or cells: mouse CD115+ spleen monocytes; murine microvascular endothelial cells
T1 sequence (Q64695 18-242 C242S): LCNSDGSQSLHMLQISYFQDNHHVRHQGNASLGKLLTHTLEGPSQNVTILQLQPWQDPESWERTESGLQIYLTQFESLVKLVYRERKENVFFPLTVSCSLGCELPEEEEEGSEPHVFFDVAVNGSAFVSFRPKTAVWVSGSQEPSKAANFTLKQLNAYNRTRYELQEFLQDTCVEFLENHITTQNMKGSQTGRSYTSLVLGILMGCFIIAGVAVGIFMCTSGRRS
The experiment in a line: Flow cytometry surface staining of monocytes with αEPCR 1682 and αLBPA 6C4. The note with it: LBPA added to culture medium, 10 μM, 10 min. The format is binding.
Source text: as §1, with “evident. […]” for “evident.”

The test system of assay [6] is human trophoblast cells. Briefly: TNFα mRNA induction by HLSB in ALIX knock-down trophoblast cells. It is filed as cell-based. The note with it: extracellular LBPA supplemented. How it is done:
as §2
The importance of this pathway in human trophoblast cells by knock-down of ALIX (FIG. 8A) was evaluated, which is required for normal lysosomal functioning. ALIX knock-down diminished LBPA cell surface presentation, but not EPCR expression (FIG. 8B) and abolished aPL-induced, but not TNFα-induced proinflammatory effects.

The subject of assay [7] is EPCR^C/S monocytes. Briefly: Gbp2 mRNA induction by aPL in EPCR^C/S monocytes. The format is cell-based, mouse. The following applies: 1 hour stimulation with aPL. How it is done:
as §3
Further, it was investigated whether the identified target for lipid-reactive aPL contributes to the development of autoimmunity. Upregulation of interferon responses in circulating immune cells are linked to the development of APS (38, 39). […] In addition, IgG isolated from MRL/lpr lupus erythematosus mice, but not MRL control mice induced interferon responses dependent on EPCR-LPBA in monocytes (FIG. 9B).

The subject of assay [8] is acidic sphingomyelinase (ASM). Briefly: ASM activity in unstimulated cell lysates after addition of sEPCR-LBPA. It is filed as biochemical. How it is done:
(A) aPL-mediated TF activation, PS exposure measured by annexin 5 staining, ROS production and TNFα induction as well as (B) aPL internalization in MM1 cells was blocked by sphingomyelinase inhibitor desipramine. Bar=5 μm. (C) aPL-induced ASM activity in MM1 cells is blocked by inhibitors of FXa, thrombin, and PAR1 cleavage. (D) Live cell imaging of surface ASM exposure in MM1 cells after 30 minutes of stimulation with Fab′2 aPL HLSB. Bar=5 μm. (E) ASM activity in unstimulated cell lysates after addition of sEPCR-LBPA (2.504) is blocked by αEPCR 1682. For all ASM activity assays: mean±SD, n=3. * p<0.0003; one-way ANOVA, Dunnett multiple-comparison test. […] (G, H) Thrombosis induction by dual reactive aPL HL7G in the indicated mouse strains or WT mice in presence of indicated αEPCR. (F-H) Quantification of thrombus size 3 hours after aPL injection; median, interquartile range, and range; n=6-11; * p <0.004; one-way ANOVA, Dunnett multiple-comparison test compared to αEPCR 1650. (I, J) Thrombosis induction by aPL HLSB (I) or IgG isolated from age-matched 16 weeks old lupus-prone MRL/lpr and MRL control mice (J) in the indicated mouse strains. Quantification of thrombus size 3 hours after aPL injection; median, interquartile range, and range; (I) n=6-10; * p=0.001; unpaired t-test. (J) n=5; * p=0.0025; two-way ANOVA, Sidak's multiple comparisons test.
ASM requires LBPA for activity (33). […]

The values that follow come from patent US20230043394A1, “METHODS FOR DETECTION OF PATHOGENIC ANTIPHOSPHOLIPID ANTIBODIES AND FOR IDENTIFICATION OF INHIBITORS” (UNIVERSITÄTSMEDIZIN DER JOHANNES GUTENBERG-UNIVERSITÄT MAINZ, priority 2019, published 2023).

In the case of S/R 18:1 LBPA, the “aPL signaling in EPCR^C/S monocytes after adding LBPA isomers” value in assay [1] (10 μM) was “restored”. Further, the “aPL HL5B binding to ALIX^−/− trophoblast cells” value in assay [2] was “restored”.

On to interferon a, for which the “expansion of anti-cardiolipin producing B cells” value in assay [3] is on record as “restored”.

Turning to lysobisphosphatidic acid [LBPA], the “ASM activation by aPL after extracellular addition of LBPA” value in assay [4] is given as “restored ASM activation”. Besides, in assay [5], the “cell surface αLBPA 6C4 and αEPCR 1682 staining of EPCR^C/S cells” value was “restored”. Besides, the “aPL pro-inflammatory signaling of EPCR^C/S cells after lipid supplementation” value in assay [1] (10 μM lipid, TNF induction after 3 hours) is listed as “restored aPL pro-inflammatory signaling”. For the same molecule, in assay [6], the “aPL signaling in ALIX knock-down trophoblast cells” value was “restored aPL signaling”. Further, in assay [3], the “expansion of anti-cardiolipin producing B cells” value was “restored”. Further, the “interferon responses (GBP2) in EPCR^C/S monocytes” value in assay [7] is reported as “restored interferon responses”.

B1: EPCR-LBPA: purified soluble EPCR loaded with LBPA by lipid exchange (protein, UniProt Q9UNN8 18-210, looked up)
extracellular domain: SQDASDGLQRLHMLQISYFRDPYHVWYQGNASLGGHLTHVLEGPDTNTTIIQLQPLQEPESWARTQSGLQSYLLQFHGLVRLVHQERTLAFPLTIRCFLGCELPPEGSRAHVFFEVAVNGSSFVSFRPERALWQADTQVTSGVVTFTLQQLNAYNRTRYELREFLEDTCVQYVQKHISAENTKGSQTSRSYTS
modifications: extracellular domain loaded with LBPA lipid
notes: purified soluble EPCR loaded with LBPA by lipid exchange
Take B1: the “induction of ASM activity in cell lysates of unstimulated cells” value in assay [8] was “efficiently induced ASM activity”.
